Experimental data taken from US9738634B2, “Heterocyclic amide compound and herbicide” (SYNGENTA PARTICIPATIONS AG, priority 2013, dated 2017).

What was measured:
Assay type in all cases: in vivo
fig-leafed goosefoot [1] = experiment: Test Example 4: weedkilling efficacy by foliar treatment; M: fig-leafed goosefoot; details: treatment dosage 320 g/ha
In short: (§1)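 Seeds are spot-sown into sterilized diluvial soil and covered with about 1.5 cm of soil. After 14 days' greenhouse growth at 25 to 30° C, plants are sprayed on stems and leaves with diluted emulsion at the stated g/ha rate, then scored at 3 weeks.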

catchweed [2] = experiment: Test Example 4: weedkilling efficacy by foliar treatment; O: catchweed; details: treatment dosage 320 g/ha
In short: as §1

Italian ryegrass [3] = experiment: Test Example 3: weedkilling efficacy through soil treatment; I: Italian ryegrass
In short: (§2)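 Crop and weed responses were judged three weeks after a uniform surface spray of the water-diluted emulsion at the given g/ha rate. Seeds sat beneath about 1.5 cm of sterilized diluvial soil, and boxes stood in a greenhouse at 25 to 30° C.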

black-grass [4] = experiment: Test Example 4: weedkilling efficacy by foliar treatment; H: black-grass
In short: as §1

wheat [5] = experiment: Test Example 3: soil treatment, effect on crop; e: wheat
In short: as §2

Italian ryegrass [6] = experiment: Test Example 4: weedkilling efficacy by foliar treatment; I: Italian ryegrass
In short: as §1

beet [7] = experiment: Test Example 3: soil treatment, effect on crop; f: beet; details: treatment dosage 320 g/ha
In short: as §2

bulrush [8] = experiment: Test Example 1: weedkilling efficacy, preemergent weed treatment in the submerged state; B: bulrush; details: treatment dosage 320 g/ha
In short: (§3)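 Emulsion diluted with water to the specified per-hectare dosage is applied onto flood water (4 cm) over alluvial soil on the sowing day, with barnyard grass, bulrush and pondweed seeded and rice (2.5-leaf) transplanted; plants grow at 25–30 °C and are rated at 3 weeks.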

oval-leafed pondweed [9] = experiment: Test Example 1: weedkilling efficacy, preemergent weed treatment in the submerged state; C: oval-leafed pondweed; details: treatment dosage 320 g/ha
In short: as §3

soybean [10] = experiment: Test Example 4: foliar treatment, effect on crop; d: soybean; details: treatment dosage 320 g/ha
In short: as §1

Indian mallow [11] = experiment: Test Example 3: weedkilling efficacy through soil treatment; K: Indian mallow; details: treatment dosage 320 g/ha
In short: as §2

common wind-grass [12] = experiment: Test Example 4: weedkilling efficacy by foliar treatment; J: common wind-grass
Procedure: (§4) Testing of Weedkilling Efficacy by Foliar Treatment
(§5) Sterilized diluvial soil was introduced into 21 cm long, 13 cm wide, 7 cm deep plastic boxes, and seeds of crabgrass, green foxtail, barnyard grass, wild oat, black-grass, Italian ryegrass, common wind-grass, Indian mallow, redroot pigweed, fig-leafed goosefoot, chickweed, catchweed, birds-eye speedwell, corn, soybean, rice, wheat, beet and rapeseed were each spot-sown, and covered with about 1.5 cm of soil, then the plants were grown in a greenhouse at 25 to 30° C.
(§6) After they had grown for 14 days, emulsions of compounds of the present invention prepared according to compounding example 2 were diluted with water to give the specified dosages, and applied uniformly onto the stem and leaf parts with a small sprayer. 3 weeks after the pesticide treatment the effect on each type of plant was investigated on the basis of the assessment criteria of test example 1.
(§7) A: barnyard grass, B: bulrush, C: oval-leafed pondweed, D: crabgrass, E: green foxtail, F: barnyard grass, G: wild oat, H: black-grass, I: Italian ryegrass, J: common wind-grass, K: Indian mallow, L: redroot pigweed, M: fig-leafed goosefoot, N: chickweed, O: catchweed, p: birds-eye speedwell, a: transplanted rice, b: directly sown rice, c: corn, d: soybean, e: wheat, f: beet, g: rapeseed
(§8) Further, pesticide dosage (g/ha) indicates the concentration regulated such that treatment was with only the stated number of grams (g), when calculated per hectare (ha).

oval-leafed pondweed [13] = experiment: Test Example 2: weedkilling efficacy, growth period weed treatment in the submerged state; C: oval-leafed pondweed; details: treatment dosage 320 g/ha
In short: (§9)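 First, alluvial soil in pots is flooded to 4 cm and mixed seed is sown. Next, plants grow in a greenhouse at 25 to 30° C until the 1-2 leaf stage. Then diluted emulsion is applied onto the water surface at the given g/ha rate, and injury is assessed after 3 weeks.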

bulrush [14] = experiment: Test Example 2: weedkilling efficacy, growth period weed treatment in the submerged state; B: bulrush; details: treatment dosage 320 g/ha
In short: as §9

transplanted rice = experiment: Test Example 1: preemergent weed treatment in the submerged state, effect on crop; a: transplanted rice; details: treatment dosage 320 g/ha
In short: as §3

catchweed [15] = experiment: Test Example 3: weedkilling efficacy through soil treatment; O: catchweed; details: treatment dosage 320 g/ha
In short: as §2

redroot pigweed [16] = experiment: Test Example 4: weedkilling efficacy by foliar treatment; L: redroot pigweed; details: treatment dosage 320 g/ha
In short: as §1

wheat [17] = experiment: Test Example 4: foliar treatment, effect on crop; e: wheat
In short: as §1

wild oat [18] = experiment: Test Example 3: weedkilling efficacy through soil treatment; G: wild oat; details: treatment dosage 320 g/ha
In short: as §2

wild oat [19] = experiment: Test Example 4: weedkilling efficacy by foliar treatment; G: wild oat; details: treatment dosage 320 g/ha
In short: as §1

fig-leafed goosefoot [20] = experiment: Test Example 3: weedkilling efficacy through soil treatment; M: fig-leafed goosefoot; details: treatment dosage 320 g/ha
In short: as §2

Indian mallow [21] = experiment: Test Example 4: weedkilling efficacy by foliar treatment; K: Indian mallow; details: treatment dosage 320 g/ha
In short: as §1

black-grass [22] = experiment: Test Example 3: weedkilling efficacy through soil treatment; H: black-grass
In short: as §2

birds-eye speedwell = experiment: Test Example 4: weedkilling efficacy by foliar treatment; p: birds-eye speedwell; details: treatment dosage 320 g/ha
In short: as §1

redroot pigweed [23] = experiment: Test Example 3: weedkilling efficacy through soil treatment; L: redroot pigweed; details: treatment dosage 320 g/ha
In short: as §2

soybean [24] = experiment: Test Example 3: soil treatment, effect on crop; d: soybean; details: treatment dosage 320 g/ha
In short: as §2

chickweed [25] = experiment: Test Example 3: weedkilling efficacy through soil treatment; N: chickweed; details: treatment dosage 320 g/ha
In short: as §2

corn [26] = experiment: Test Example 3: soil treatment, effect on crop; c: corn; details: treatment dosage 320 g/ha
In short: as §2

chickweed [27] = experiment: Test Example 4: weedkilling efficacy by foliar treatment; N: chickweed; details: treatment dosage 320 g/ha
In short: as §1

common wind-grass [28] = experiment: Test Example 3: weedkilling efficacy through soil treatment; J: common wind-grass
In short: as §2

barnyard grass [29] = experiment: Test Example 1: weedkilling efficacy, preemergent weed treatment in the submerged state; A: barnyard grass; details: treatment dosage 320 g/ha
In short: as §3

beet [30] = experiment: Test Example 4: foliar treatment, effect on crop; f: beet; details: treatment dosage 320 g/ha
In short: as §1

barnyard grass [31] = experiment: Test Example 2: weedkilling efficacy, growth period weed treatment in the submerged state; A: barnyard grass; details: treatment dosage 320 g/ha
In short: as §9

corn [32] = experiment: Test Example 4: foliar treatment, effect on crop; c: corn; details: treatment dosage 320 g/ha
In short: as §1

rapeseed [33] = experiment: Test Example 3: soil treatment, effect on crop; g: rapeseed; details: treatment dosage 80 g/ha
In short: as §2

rapeseed [34] = experiment: Test Example 4: foliar treatment, effect on crop; g: rapeseed; details: treatment dosage 80 g/ha
Procedure: as §4, §5, §6, §7, §8

Compound: COC(=O)c1ccnc(NC(=O)C(C)(C)N2COC(C)=C(c3ccccc3)C2=O)c1 [B-2-61]
- M (fig-leafed goosefoot) weedkilling efficacy grade (fig-leafed goosefoot [1]): 0 (weed kill ratio 5% or less (practically no effect))
- O (catchweed) weedkilling efficacy grade (catchweed [2]): 0 (weed kill ratio 5% or less (practically no effect))
- I (Italian ryegrass) weedkilling efficacy grade (Italian ryegrass [3]; treatment dosage 320 g/ha): 2 (weed kill ratio 20% or more, less than 40%)
- H (black-grass) weedkilling efficacy grade (black-grass [4]; treatment dosage 320 g/ha): 0 (weed kill ratio 5% or less (practically no effect))
- e (wheat) effect on crop grade (wheat [5]; treatment dosage 320 g/ha): 0 (weed kill ratio 5% or less (practically no effect))
- I (Italian ryegrass) weedkilling efficacy grade (Italian ryegrass [6]; treatment dosage 320 g/ha): 0 (weed kill ratio 5% or less (practically no effect))
- f (beet) effect on crop grade (beet [7]): 0 (weed kill ratio 5% or less (practically no effect))
- B (bulrush) weedkilling efficacy grade (bulrush [8]): 0 (weed kill ratio 5% or less (practically no effect))
- C (oval-leafed pondweed) weedkilling efficacy grade (oval-leafed pondweed [9]): 4 (weed kill ratio 70% or more, less than 90%)
- d (soybean) effect on crop grade (soybean [10]): 0 (weed kill ratio 5% or less (practically no effect))
- K (Indian mallow) weedkilling efficacy grade (Indian mallow [11]): 0 (weed kill ratio 5% or less (practically no effect))
- J (common wind-grass) weedkilling efficacy grade (common wind-grass [12]; treatment dosage 320 g/ha): 1 (weed kill ratio 5% or more, less than 20%)
- C (oval-leafed pondweed) weedkilling efficacy grade (oval-leafed pondweed [13]): 2 (weed kill ratio 20% or more, less than 40%)
- B (bulrush) weedkilling efficacy grade (bulrush [14]): 2 (weed kill ratio 20% or more, less than 40%)
- a (transplanted rice) effect on crop grade (transplanted rice): 0 (weed kill ratio 5% or less (practically no effect))
- O (catchweed) weedkilling efficacy grade (catchweed [15]): 0 (weed kill ratio 5% or less (practically no effect))
- L (redroot pigweed) weedkilling efficacy grade (redroot pigweed [16]): 0 (weed kill ratio 5% or less (practically no effect))
- e (wheat) effect on crop grade (wheat [17]; treatment dosage 320 g/ha): 0 (weed kill ratio 5% or less (practically no effect))
- G (wild oat) weedkilling efficacy grade (wild oat [18]): 0 (weed kill ratio 5% or less (practically no effect))
- G (wild oat) weedkilling efficacy grade (wild oat [19]): 0 (weed kill ratio 5% or less (practically no effect))
- M (fig-leafed goosefoot) weedkilling efficacy grade (fig-leafed goosefoot [20]): 0 (weed kill ratio 5% or less (practically no effect))
- K (Indian mallow) weedkilling efficacy grade (Indian mallow [21]): 0 (weed kill ratio 5% or less (practically no effect))
- H (black-grass) weedkilling efficacy grade (black-grass [22]; treatment dosage 320 g/ha): 4 (weed kill ratio 70% or more, less than 90%)
- P (birds-eye speedwell) weedkilling efficacy grade (birds-eye speedwell): 2 (weed kill ratio 20% or more, less than 40%)
- L (redroot pigweed) weedkilling efficacy grade (redroot pigweed [23]): 0 (weed kill ratio 5% or less (practically no effect))
- d (soybean) effect on crop grade (soybean [24]): 0 (weed kill ratio 5% or less (practically no effect))
- N (chickweed) weedkilling efficacy grade (chickweed [25]): 0 (weed kill ratio 5% or less (practically no effect))
- c (corn) effect on crop grade (corn [26]): 0 (weed kill ratio 5% or less (practically no effect))
- N (chickweed) weedkilling efficacy grade (chickweed [27]): 0 (weed kill ratio 5% or less (practically no effect))
- J (common wind-grass) weedkilling efficacy grade (common wind-grass [28]; treatment dosage 320 g/ha): 5 (weed kill ratio 90% or more, (practically complete withering))
- A (barnyard grass) weedkilling efficacy grade (barnyard grass [29]): 0 (weed kill ratio 5% or less (practically no effect))
- f (beet) effect on crop grade (beet [30]): 2 (weed kill ratio 20% or more, less than 40%)
- A (barnyard grass) weedkilling efficacy grade (barnyard grass [31]): 0 (weed kill ratio 5% or less (practically no effect))
- c (corn) effect on crop grade (corn [32]): 0 (weed kill ratio 5% or less (practically no effect))

Compound: CC1=C(c2ccccc2)C(=O)N(C(C)(C)C(=O)Nc2cc(C)ccn2)CO1 [B-2-52]
- g (rapeseed) effect on crop grade (rapeseed [33]): 1 (weed kill ratio 5% or more, less than 20%)
- I (Italian ryegrass) weedkilling efficacy grade (Italian ryegrass [3]; treatment dosage 80 g/ha): 5 (weed kill ratio 90% or more, (practically complete withering))
- H (black-grass) weedkilling efficacy grade (black-grass [4]; treatment dosage 80 g/ha): 2 (weed kill ratio 20% or more, less than 40%)
- e (wheat) effect on crop grade (wheat [5]; treatment dosage 80 g/ha): 0 (weed kill ratio 5% or less (practically no effect))
- I (Italian ryegrass) weedkilling efficacy grade (Italian ryegrass [6]; treatment dosage 80 g/ha): 3 (weed kill ratio 40% or more, less than 70%)
- J (common wind-grass) weedkilling efficacy grade (common wind-grass [12]; treatment dosage 80 g/ha): 5 (weed kill ratio 90% or more, (practically complete withering))
- e (wheat) effect on crop grade (wheat [17]; treatment dosage 80 g/ha): 0 (weed kill ratio 5% or less (practically no effect))
- H (black-grass) weedkilling efficacy grade (black-grass [22]; treatment dosage 80 g/ha): 4 (weed kill ratio 70% or more, less than 90%)
- g (rapeseed) effect on crop grade (rapeseed [34]): 0 (weed kill ratio 5% or less (practically no effect))
- J (common wind-grass) weedkilling efficacy grade (common wind-grass [28]; treatment dosage 80 g/ha): 5 (weed kill ratio 90% or more, (practically complete withering))

Compound: CC1=C(c2ccccc2)C(=O)N(C(C)(C)C(=O)Nc2cc(Cl)ccn2)CO1 [B-2-28]
- g (rapeseed) effect on crop grade (rapeseed [33]): 0 (weed kill ratio 5% or less (practically no effect))
- I (Italian ryegrass) weedkilling efficacy grade (Italian ryegrass [3]; treatment dosage 80 g/ha): 5 (weed kill ratio 90% or more, (practically complete withering))
- H (black-grass) weedkilling efficacy grade (black-grass [4]; treatment dosage 80 g/ha): 5 (weed kill ratio 90% or more, (practically complete withering))
- e (wheat) effect on crop grade (wheat [5]; treatment dosage 80 g/ha): 0 (weed kill ratio 5% or less (practically no effect))
- I (Italian ryegrass) weedkilling efficacy grade (Italian ryegrass [6]; treatment dosage 80 g/ha): 5 (weed kill ratio 90% or more, (practically complete withering))
- J (common wind-grass) weedkilling efficacy grade (common wind-grass [12]; treatment dosage 80 g/ha): 5 (weed kill ratio 90% or more, (practically complete withering))
- e (wheat) effect on crop grade (wheat [17]; treatment dosage 80 g/ha): 0 (weed kill ratio 5% or less (practically no effect))
- H (black-grass) weedkilling efficacy grade (black-grass [22]; treatment dosage 80 g/ha): 5 (weed kill ratio 90% or more, (practically complete withering))
- g (rapeseed) effect on crop grade (rapeseed [34]): 3 (weed kill ratio 40% or more, less than 70%)
- J (common wind-grass) weedkilling efficacy grade (common wind-grass [28]; treatment dosage 80 g/ha): 5 (weed kill ratio 90% or more, (practically complete withering))
